In patent publication US20150087627A1, “COMBINATION OF KINASE INHIBITORS AND USES THEREOF” (Intellikine LLC, priority 2011, published 2015):
Read-outs that look alike come from different tables or passages of the source.

Assays:
Format in all cases: biochemical
PI3K β (p110β/p85α) = target: T1, PI3K β (p110β/p85α) (Homo sapiens, UniProt P42338); experiment: PI 3-Kinase (human) HTRF assay, PI3K β
T1 construct: purchased Upstate / Millipore Corporation

PI3K δ = target: T2, PI3K δ (Homo sapiens, UniProt O00329); experiment: PI 3-Kinase (human) HTRF assay, PI3K δ
T2 construct: purchased Upstate / Millipore Corporation

PI3K γ (p110γ) = target: T3, PI3K γ (p110γ) (Homo sapiens, UniProt P48736); experiment: PI 3-Kinase (human) HTRF assay, PI3K γ
T3 construct: purchased Upstate / Millipore Corporation

PI3K α (p110α/p85α) = target: T4, PI3K α (p110α/p85α) (Homo sapiens, UniProt P42336); experiment: PI 3-Kinase (human) HTRF assay, PI3K α; conditions: read-out: PI3K α IC50
T4 construct: purchased Upstate / Millipore Corporation
T4 sequence (P42336 whole entry): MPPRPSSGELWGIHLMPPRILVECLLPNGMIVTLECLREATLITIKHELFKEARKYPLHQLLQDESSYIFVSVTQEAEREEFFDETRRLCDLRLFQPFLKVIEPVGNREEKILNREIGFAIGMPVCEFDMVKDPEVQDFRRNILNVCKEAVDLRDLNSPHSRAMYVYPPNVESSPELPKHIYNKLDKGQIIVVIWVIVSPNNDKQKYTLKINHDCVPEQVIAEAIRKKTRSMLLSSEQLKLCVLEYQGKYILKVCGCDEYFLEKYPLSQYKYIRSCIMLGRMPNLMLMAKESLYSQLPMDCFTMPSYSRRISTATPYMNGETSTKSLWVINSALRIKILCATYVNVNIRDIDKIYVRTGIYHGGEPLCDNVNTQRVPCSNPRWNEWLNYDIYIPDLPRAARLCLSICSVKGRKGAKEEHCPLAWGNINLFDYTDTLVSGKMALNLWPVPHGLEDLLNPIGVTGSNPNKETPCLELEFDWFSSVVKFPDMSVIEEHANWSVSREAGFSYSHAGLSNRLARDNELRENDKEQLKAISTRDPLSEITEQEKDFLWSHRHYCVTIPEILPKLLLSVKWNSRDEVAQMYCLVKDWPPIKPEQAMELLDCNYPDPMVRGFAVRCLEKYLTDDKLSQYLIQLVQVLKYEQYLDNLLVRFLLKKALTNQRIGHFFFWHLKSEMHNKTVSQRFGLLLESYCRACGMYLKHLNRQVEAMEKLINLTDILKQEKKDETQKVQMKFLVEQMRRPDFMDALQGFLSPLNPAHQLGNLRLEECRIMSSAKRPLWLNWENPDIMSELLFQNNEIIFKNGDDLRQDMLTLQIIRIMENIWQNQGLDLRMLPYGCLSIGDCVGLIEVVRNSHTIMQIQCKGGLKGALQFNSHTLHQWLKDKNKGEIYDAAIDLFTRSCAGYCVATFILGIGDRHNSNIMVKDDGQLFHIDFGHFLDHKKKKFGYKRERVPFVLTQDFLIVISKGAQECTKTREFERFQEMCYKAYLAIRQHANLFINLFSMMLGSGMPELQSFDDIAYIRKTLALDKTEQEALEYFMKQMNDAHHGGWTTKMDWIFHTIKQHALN
T4 sequence (P27986 whole entry partner): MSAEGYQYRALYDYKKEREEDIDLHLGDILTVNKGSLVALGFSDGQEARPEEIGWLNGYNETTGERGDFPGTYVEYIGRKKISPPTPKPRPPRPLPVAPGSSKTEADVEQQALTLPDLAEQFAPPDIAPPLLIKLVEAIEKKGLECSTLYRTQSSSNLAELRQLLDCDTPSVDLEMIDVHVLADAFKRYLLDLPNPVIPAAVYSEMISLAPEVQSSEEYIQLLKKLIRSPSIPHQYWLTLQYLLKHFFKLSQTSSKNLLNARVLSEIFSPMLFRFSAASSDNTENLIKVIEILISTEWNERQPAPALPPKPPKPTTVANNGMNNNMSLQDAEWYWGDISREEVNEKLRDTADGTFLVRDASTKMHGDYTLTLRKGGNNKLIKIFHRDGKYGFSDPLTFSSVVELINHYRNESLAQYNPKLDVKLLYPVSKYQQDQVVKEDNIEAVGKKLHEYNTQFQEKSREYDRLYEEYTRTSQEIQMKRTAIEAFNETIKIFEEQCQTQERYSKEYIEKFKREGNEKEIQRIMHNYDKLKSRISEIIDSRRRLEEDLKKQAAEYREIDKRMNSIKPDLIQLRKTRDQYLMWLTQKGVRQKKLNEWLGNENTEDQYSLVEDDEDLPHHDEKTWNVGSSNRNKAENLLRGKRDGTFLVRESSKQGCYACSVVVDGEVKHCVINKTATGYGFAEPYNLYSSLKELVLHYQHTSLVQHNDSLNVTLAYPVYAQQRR

T2 sequence (O00329 whole entry): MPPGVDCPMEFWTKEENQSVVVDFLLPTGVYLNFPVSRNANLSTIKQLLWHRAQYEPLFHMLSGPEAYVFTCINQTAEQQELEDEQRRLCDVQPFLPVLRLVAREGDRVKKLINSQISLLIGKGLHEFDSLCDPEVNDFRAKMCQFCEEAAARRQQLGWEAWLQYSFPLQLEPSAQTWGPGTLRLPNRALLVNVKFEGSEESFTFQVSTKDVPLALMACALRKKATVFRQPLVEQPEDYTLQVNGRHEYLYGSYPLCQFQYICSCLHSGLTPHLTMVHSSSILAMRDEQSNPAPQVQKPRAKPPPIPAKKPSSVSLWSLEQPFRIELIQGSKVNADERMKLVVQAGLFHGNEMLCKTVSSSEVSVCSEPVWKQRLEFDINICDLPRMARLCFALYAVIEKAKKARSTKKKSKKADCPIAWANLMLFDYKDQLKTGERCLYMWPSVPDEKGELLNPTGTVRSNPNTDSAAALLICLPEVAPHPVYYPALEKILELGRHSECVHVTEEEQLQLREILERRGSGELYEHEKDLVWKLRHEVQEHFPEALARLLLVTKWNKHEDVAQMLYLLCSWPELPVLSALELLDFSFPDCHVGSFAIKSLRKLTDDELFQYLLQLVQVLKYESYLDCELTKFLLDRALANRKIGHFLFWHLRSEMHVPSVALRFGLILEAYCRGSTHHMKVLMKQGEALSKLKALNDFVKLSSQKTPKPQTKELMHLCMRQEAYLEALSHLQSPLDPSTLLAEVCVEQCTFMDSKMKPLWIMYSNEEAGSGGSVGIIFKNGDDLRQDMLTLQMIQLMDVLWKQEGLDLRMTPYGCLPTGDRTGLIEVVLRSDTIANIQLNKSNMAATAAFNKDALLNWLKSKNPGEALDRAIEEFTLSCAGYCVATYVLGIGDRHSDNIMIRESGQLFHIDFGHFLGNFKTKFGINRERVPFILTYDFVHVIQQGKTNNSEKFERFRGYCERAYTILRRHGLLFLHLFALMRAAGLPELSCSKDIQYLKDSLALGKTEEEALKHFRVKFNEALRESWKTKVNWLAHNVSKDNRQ
T2 sequence (P27986 whole entry partner): as the sequence (P27986 whole entry partner) above
T3 sequence (P48736 whole entry): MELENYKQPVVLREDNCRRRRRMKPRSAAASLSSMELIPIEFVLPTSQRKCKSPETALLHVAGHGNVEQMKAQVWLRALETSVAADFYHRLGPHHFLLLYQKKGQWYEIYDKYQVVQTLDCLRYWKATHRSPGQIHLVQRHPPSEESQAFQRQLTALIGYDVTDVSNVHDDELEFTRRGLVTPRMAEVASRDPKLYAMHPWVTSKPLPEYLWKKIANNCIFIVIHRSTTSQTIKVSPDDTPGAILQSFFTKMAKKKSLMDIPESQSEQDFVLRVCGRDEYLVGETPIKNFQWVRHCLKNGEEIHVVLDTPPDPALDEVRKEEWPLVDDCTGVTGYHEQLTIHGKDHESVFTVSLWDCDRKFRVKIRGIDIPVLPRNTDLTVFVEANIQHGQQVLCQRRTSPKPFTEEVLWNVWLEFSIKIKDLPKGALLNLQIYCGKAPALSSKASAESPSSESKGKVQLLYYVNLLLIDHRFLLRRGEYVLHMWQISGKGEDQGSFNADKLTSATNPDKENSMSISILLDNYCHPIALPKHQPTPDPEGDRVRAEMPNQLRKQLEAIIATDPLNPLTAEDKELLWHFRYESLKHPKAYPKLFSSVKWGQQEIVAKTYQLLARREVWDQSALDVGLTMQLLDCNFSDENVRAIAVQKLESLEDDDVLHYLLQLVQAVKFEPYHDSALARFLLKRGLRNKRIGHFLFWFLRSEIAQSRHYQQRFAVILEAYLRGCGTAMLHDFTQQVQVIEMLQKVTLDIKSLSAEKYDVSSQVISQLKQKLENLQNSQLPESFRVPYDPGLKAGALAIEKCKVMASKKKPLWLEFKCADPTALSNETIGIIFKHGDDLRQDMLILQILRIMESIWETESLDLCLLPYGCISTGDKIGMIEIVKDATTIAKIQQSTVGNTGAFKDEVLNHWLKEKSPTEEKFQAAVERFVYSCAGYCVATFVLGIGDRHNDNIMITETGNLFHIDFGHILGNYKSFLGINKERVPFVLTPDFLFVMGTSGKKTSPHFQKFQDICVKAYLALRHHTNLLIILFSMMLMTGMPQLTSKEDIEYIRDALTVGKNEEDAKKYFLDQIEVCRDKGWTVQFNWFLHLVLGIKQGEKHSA
T1 sequence (P42338 whole entry): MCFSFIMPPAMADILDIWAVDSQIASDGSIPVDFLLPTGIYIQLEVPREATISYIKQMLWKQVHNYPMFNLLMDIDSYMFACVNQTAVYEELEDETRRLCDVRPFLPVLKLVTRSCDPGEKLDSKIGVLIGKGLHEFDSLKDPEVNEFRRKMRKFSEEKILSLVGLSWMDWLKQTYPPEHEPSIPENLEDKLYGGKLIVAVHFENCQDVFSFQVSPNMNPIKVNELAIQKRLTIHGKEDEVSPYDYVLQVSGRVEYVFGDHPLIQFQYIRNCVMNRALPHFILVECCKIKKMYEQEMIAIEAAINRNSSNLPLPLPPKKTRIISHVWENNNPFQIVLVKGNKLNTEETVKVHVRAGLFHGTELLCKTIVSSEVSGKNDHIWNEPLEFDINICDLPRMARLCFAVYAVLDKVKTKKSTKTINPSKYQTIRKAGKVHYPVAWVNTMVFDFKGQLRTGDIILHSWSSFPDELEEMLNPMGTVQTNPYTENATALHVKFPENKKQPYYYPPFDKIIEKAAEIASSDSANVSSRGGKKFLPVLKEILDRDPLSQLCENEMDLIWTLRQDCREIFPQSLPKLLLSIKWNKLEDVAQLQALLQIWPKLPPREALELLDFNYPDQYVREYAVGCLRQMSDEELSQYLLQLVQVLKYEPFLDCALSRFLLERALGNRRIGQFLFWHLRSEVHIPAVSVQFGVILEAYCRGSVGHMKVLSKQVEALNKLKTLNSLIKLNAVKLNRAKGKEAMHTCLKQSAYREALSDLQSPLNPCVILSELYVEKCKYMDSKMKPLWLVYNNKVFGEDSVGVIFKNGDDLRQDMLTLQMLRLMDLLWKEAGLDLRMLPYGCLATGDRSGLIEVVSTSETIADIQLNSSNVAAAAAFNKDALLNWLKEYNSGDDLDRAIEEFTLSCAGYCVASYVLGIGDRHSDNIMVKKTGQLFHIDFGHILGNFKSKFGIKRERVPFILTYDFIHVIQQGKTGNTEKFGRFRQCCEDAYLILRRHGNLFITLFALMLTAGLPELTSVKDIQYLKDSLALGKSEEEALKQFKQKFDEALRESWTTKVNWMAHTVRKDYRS
T1 sequence (P27986 whole entry partner): as the sequence (P27986 whole entry partner) above

IC50 (PI3K β (p110β/p85α); read-out: PI3K β IC50) [nM] | IC50 (PI3K δ; read-out: PI3K δ IC50) [µM] | IC50 (PI3K γ (p110γ); read-out: PI3K γ IC50) [nM] | IC50 (PI3K α (p110α/p85α)) [µM] | Structure (SMILES) | IC50 (PI3K γ (p110γ); PI3K γ IC50 (nM)) [nM] | IC50 (PI3K β (p110β/p85α); PI3K β IC50 (nM)) [nM] | IC50 (PI3K δ) [µM]
> 10000 | > 10 | > 10000 | > 10 | CC(=O)n1nc(N)c2ccc(-c3ccc4oc(N)nc4c3)cc21 [Compound 426] | – | – | –
< 10000 | > 10 | < 1000 | < 10 | Nc1nc2cc(-c3ccc4c(N)n[nH]c4c3)ccc2o1 [Compound 428] | – | – | –
< 1000 | > 10 | < 100 | < 10 | Nc1nc2cc(-c3cc(F)c4oc(N)nc4c3)ccc2o1 [Compound 432] | – | – | –
< 10000 | > 10 | < 100 | < 10 | CC(=O)Nc1nc2cc(-c3cc(F)c4oc(N)nc4c3)ccc2s1 [Compound 435] | – | – | –
< 1000 | > 10 | < 1000 | < 10 | Nc1nc2cc(-c3ccc4sc(N)nc4c3)cc(F)c2o1 [Compound 437] | – | – | –
> 10000 | > 10 | > 10000 | < 10 | Nc1nc2ccc(-c3cc(F)c4ncc(C(=O)N5CCOCC5)n4c3)cc2o1 [Compound 439] | – | – | –
> 10000 | > 10 | > 10000 | < 1 | CN1CCN(n2cnc3ccc(-c4ccc5oc(N)nc5c4)cc3c2=O)CC1 [Compound 446] | – | – | –
> 10000 | > 10 | < 10000 | < 1 | Cc1cc(-c2ccc3oc(N)nc3c2)cn2c(C(=O)N3CCOCC3)cnc12 [Compound 448] | – | – | –
< 1000 | > 10 | < 100 | < 1 | Cc1cc(-c2ccc3nc(N)oc3c2)cn2c(C(=O)N3CCOCC3)cnc12 [Compound 449] | – | – | –
> 10000 | > 10 | > 10000 | < 10 | CNS(=O)(=O)c1cncc(-c2ccc3ncc(C(=O)N4CCOCC4)n3c2)c1 [Compound 450] | – | – | –
> 10000 | > 10 | < 10000 | < 10 | O=C(c1cnc2ccc(-c3cccc(NS(=O)(=O)c4ccccc4)c3)cn12)N1CCOCC1 [Compound 453] | – | – | –
> 10000 | < 10 | < 10000 | < 10 | O=C(c1cnc2ccc(-c3cccc(NS(=O)(=O)c4ccc(F)cc4F)c3)cn12)N1CCOCC1 [Compound 454] | – | – | –
< 100 | < 0.1 | < 100 | < 0.1 | O=C(c1cnc2ccc(-c3cnc(Cl)c(NS(=O)(=O)c4ccc(F)cc4)c3)cn12)N1CCOCC1 [Compound 457] | – | – | –
< 100 | < 0.1 | < 100 | < 0.1 | O=C(c1cnc2ccc(-c3cnc(Cl)c(NS(=O)(=O)c4cccc(F)c4)c3)cn12)N1CCOCC1 [Compound 458] | – | – | –
> 10000 | > 10 | > 10000 | < 10 | CS(=O)(=O)Nc1cc(-c2ccc3ncc(C(=O)N4CCOCC4)n3c2)ccc1Cl [Compound 460] | – | – | –
> 10000 | > 10 | < 1000 | < 0.1 | Nc1nc2cc(-c3ccc4ncc(C(=O)N5CC[C@H](N6CCOCC6)C5)n4c3)ccc2o1 [Compound 465] | – | – | –
< 10000 | < 10 | < 1000 | < 1 | Nc1nc2cc(-c3ccc4ncc(C(=O)N5CC[C@@H](N6CCOCC6)C5)n4c3)ccc2o1 [Compound 466] | – | – | –
< 10000 | < 10 | < 100 | < 0.1 | COC1CN(C(=O)c2cnc3ccc(-c4ccc5oc(N)nc5c4)cn23)C1 [Compound 467] | – | – | –
< 10000 | > 10 | < 100 | < 0.1 | Nc1nc2cc(-c3ccc4ncc(C(=O)N5CC(F)C5)n4c3)ccc2o1 [Compound 468] | – | – | –

IC50 (PI3K β (p110β/p85α); read-out: PI3K β IC50) [nM] | IC50 (PI3K δ; read-out: PI3K δ IC50) [µM] | IC50 (PI3K γ (p110γ); read-out: PI3K γ IC50) [nM] | IC50 (PI3K α (p110α/p85α)) [µM] | Structure (SMILES) | IC50 (PI3K γ (p110γ); PI3K γ IC50 (nM)) [nM] | IC50 (PI3K β (p110β/p85α); PI3K β IC50 (nM)) [nM] | IC50 (PI3K δ) [µM]
< 10000 | < 10 | < 1000 | < 0.1 | Nc1nc2cc(-c3ccc4ncc(C(=O)N5CC(N6CC[C@H](O)C6)C5)n4c3)ccc2o1 [Compound 469] | – | – | –
> 10000 | > 10 | < 100 | < 0.1 | Nc1nc2cc(-c3ccc4ncc(C(=O)N5CCC(F)(F)C5)n4c3)ccc2o1 [Compound 471] | – | – | –
> 10000 | > 10 | < 100 | < 0.1 | Nc1nc2cc(-c3ccc4ncc(C(=O)N5CC(F)(F)C5)n4c3)ccc2o1 [Compound 473] | – | – | –
> 10000 | > 10 | > 10000 | < 10 | Nc1nsc2c(-c3ccc4ncc(C(=O)N5CCOCC5)n4c3)cccc12 [Compound 474] | – | – | –
> 10000 | < 10 | < 1000 | < 0.1 | Nc1nc2cc(-c3ccc4ncc(C(=O)N5CC(n6cccn6)C5)n4c3)ccc2o1 [Compound 479] | – | – | –
< 10000 | > 10 | < 10000 | < 0.1 | C[C@H]1COCCN1C(=O)c1cnc2ccc(-c3ccc4oc(N)nc4c3)cn12 [Compound 483] | – | – | –
> 10000 | > 10 | > 10000 | < 10 | Nc1nc2cccc(-c3ccc4ncc(C(=O)N5CCOCC5)n4c3)c2s1 [Compound 485] | – | – | –
> 10000 | > 10 | < 10000 | < 10 | CNc1noc2cc(-c3ccc4ncc(C(=O)N5CCOCC5)n4c3)ccc12 [Compound 486] | – | – | –
> 10000 | > 10 | > 10000 | > 10 | Nc1noc2cc(-c3ccc4ncc(C(=O)N5CCOCC5)n4c3)ccc12 [Compound 488] | – | – | –
> 10000 | > 10 | > 10000 | < 10 | Nc1nsc2cc(-c3ccc4ncc(C(=O)N5CCOCC5)n4c3)ccc12 [Compound 489] | – | – | –
> 10000 | > 10 | > 10000 | > 10 | Nc1noc2c(-c3ccc4ncc(C(=O)N5CCOCC5)n4c3)cccc12 [Compound 491] | – | – | –
< 1000 | > 10 | < 10000 | < 0.1 | Nc1nc2cc(-c3ccc4ncc(C(=O)N5CCn6cncc6C5)n4c3)ccc2o1 [Compound 493] | – | – | –
< 10000 | > 10 | < 1000 | < 0.1 | C[C@@H]1COCCN1C(=O)c1cnc2ccc(-c3ccc4oc(N)nc4c3)cn12 [Compound 495] | – | – | –
> 10000 | > 10 | > 10000 | > 10 | CNc1nsc2cc(-c3ccc4ncc(C(=O)N5CCOCC5)n4c3)ccc12 [Compound 497] | – | – | –
> 10000 | > 10 | < 10000 | < 1 | Nc1nc2cc(-c3ccc4ncc(C(=O)N5CCC(N6CC(F)(F)C6)C5)n4c3)ccc2o1 (stereo not shown) [Compound 498] | – | – | –
> 10000 | > 10 | < 10000 | < 1 | Nc1nc2cc(-c3ccc4ncc(C(=O)N5CCC6(C5)OCCO6)n4c3)ccc2o1 [Compound 499] | – | – | –
> 10000 | < 10 | < 1000 | < 0.1 | Nc1nc2cc(-c3ccc4ncc(C(=O)N5CC(N6CCC(F)(F)C6)C5)n4c3)ccc2o1 [Compound 502] | – | – | –
> 10000 | > 10 | < 100 | < 1 | Nc1nc2cc(-c3ccc4ncc(C(=O)N5CCC(F)CC5)n4c3)ccc2o1 [Compound 503] | – | – | –

Structure (SMILES) | IC50 (PI3K β (p110β/p85α); read-out: PI3K β IC50) [nM] | IC50 (PI3K δ; read-out: PI3K δ IC50) [µM] | IC50 (PI3K γ (p110γ); read-out: PI3K γ IC50) [nM] | IC50 (PI3K α (p110α/p85α)) [µM] | IC50 (PI3K γ (p110γ); PI3K γ IC50 (nM)) [nM] | IC50 (PI3K β (p110β/p85α); PI3K β IC50 (nM)) [nM] | IC50 (PI3K δ) [µM]
CNS(=O)(=O)c1cccc(-c2ccc3ncc(C(=O)N4CCOCC4)n3c2)c1 [Compound 442] | > 10000 | > 10 | > 10000 | > 10 | – | – | –
CS(=O)(=O)Nc1cccc(-c2ccc3ncc(C(=O)N4CCOCC4)n3c2)c1 [Compound 443] | > 10000 | > 10 | > 10000 | > 10 | – | – | –
COc1ccc(-c2ccc3ncc(C(=O)N4CCOCC4)n3c2)cc1NS(C)(=O)=O [Compound 456] | > 10000 | > 10 | > 10000 | > 10 | – | – | –
CO[C@H]1CCN(C(=O)c2cnc3ccc(-c4ccc5oc(N)nc5c4)cn23)C1 [Compound 463] | < 10000 | < 10 | < 1000 | < 0.1 | – | – | –
CO[C@@H]1CCN(C(=O)c2cnc3ccc(-c4ccc5oc(N)nc5c4)cn23)C1 [Compound 464] | > 10000 | > 10 | < 1000 | < 0.1 | – | – | –
Nc1nc2cc(-c3ccc4ncc(C(=O)N5CC[C@H](F)C5)n4c3)ccc2o1 [Compound 476] | > 10000 | > 10 | < 100 | < 0.1 | – | – | –
Nc1nc2cc(-c3ccc4ncc(C(=O)N5C6CCC5COC6)n4c3)ccc2o1 [Compound 480] | > 10000 | < 10 | – | < 0.1 | < 1000 | – | –
Nc1nc2cccc(-c3ccc4ncc(C(=O)N5CCOCC5)n4c3)c2o1 [Compound 484] | > 10000 | > 10 | > 10000 | < 1 | – | – | –
Nc1nc2cc(-c3ccc4ncc(C(=O)N5CC6(C5)OCCO6)n4c3)ccc2o1 [Compound 494] | – | – | < 1000 | < 0.1 | – | < 10000 | > 10
Nc1nc2cc(-c3ccc4ncc(C(=O)N5CCC(N6CCC(F)(F)C6)C5)n4c3)ccc2o1 (stereo not shown) [Compound 500] | > 10000 | < 10 | < 10000 | < 1 | – | – | –
Nc1nc2cc(-c3ccc4ncc(C(=O)N5CCC(F)(F)CC5)n4c3)ccc2o1 [Compound 501] | > 10000 | > 10 | < 10000 | < 1 | – | – | –
Nc1nc2cc(-c3ccc4ncc(C(=O)N5CC6CCC(C5)O6)n4c3)ccc2o1 [Compound 504] | < 10000 | > 10 | < 100 | < 1 | – | – | –
